Results on six molecules are retold here after PMC6478823, “A suite of phenotypic assays to ensure pipeline diversity when prioritizing drug-like Cryptosporidium growth inhibitors” (Nature Communications, 2019).

Test [1] concerns Cryptosporidium. More on the design: method as in Downey, et al. 2008. AAC. As to conditions: ref Downey, et al. 2008. AAC.; cited from earlier work.
The subject of test [2] is Cryptosporidium. Also noted: method as in Gorla, et al. 2014. AAC. The conditions noted are these: ref Gorla, et al. 2014. AAC.; cited from earlier work.
Test [3] has as its system Cryptosporidium. Also noted: method as in Lee, et al. 2018. AAC. The conditions noted are these: ref Lee, et al. 2018. AAC; cited from earlier work.
Test [4] relates to Cryptosporidium. Also noted: method as in earlier work. As to conditions: ref Castellanos-Gonzalez, et al. 2013. JID. and Love, et al. 2017. PLoS NTD.; cited from earlier work.
The subject of another test is purified N-WASp. More on the design: method as in PMID 15235593. The conditions noted are these: at 10 µM; cited from earlier work.
Another test relates to C. parvum. Nature of the test: NOD SCID gamma (NSG) mouse model of chronic cryptosporidiosis. It is filed as in vivo. The conditions noted are these: oral gavage, 4-day treatment course. The source says: It is feasible that Cryptosporidium is most susceptible to drug treatments that show the greatest activity in only one of the mode of action assays described above, which would complicate use of these assays for maintaining a diverse anticryptosporidial pipeline. Therefore, to further test the strategy of ensuring a mechanistically diverse pipeline of anticryptosporidials, it was critical to know that compounds belonging to different phenotypic effect clusters (as in Fig. 7) could work in vivo. For this, thirty-one of the thirty-nine compounds were tested in a mouse model of cryptosporidiosis. There is considerable variability in the in vivo efficacy of anticryptosporidials tested in different mouse models[15],[34]–[39], and it remains unknown which animal models will best predict drug efficacy in humans. […] The piperazine-based compound MMV665917, however, is efficacious in both the acute IFN-γ KO and chronic NSG mouse models. […] Given that the goal of this study was to determine if compounds belonging to different phenotypic clusters might be active in vivo, we assessed in vivo efficacy using the stringent NSG mouse model.
The NOD SCID gamma mouse model for treatment of established cryptosporidiosis was reported previously. […] Oocyst shedding in feces was monitored by qPCR for 18s rRNA gene with the primers Cp18s forward and Cp18s reverse. […]

A further test relates to cryptosporidiosis. More on the design: method as in PMID 19954529. As to conditions: versus approximately one-quarter of untreated children; cited from earlier work.

Molecules are shown by their SMILES.

For the molecule `Cc1cc(/C=C/c2ccc3cc(N(C)C)ccc3[n+]2C)c(C)n1-c1ccccc1` [Pyrvinium pamoate], the “anticryptosporidial activity in neonatal mouse model” value with Cryptosporidium [1] was “previously demonstrated anticryptosporidial activity”.

With `CC(=NOCCN)c1cccc(C(C)(C)NC(=O)Nc2ccc(Cl)c(C(F)(F)F)c2)c1` [P257], in the test on Cryptosporidium [2], the “efficacy in the acute IL-12 knockout mouse model of cryptosporidiosis” value was “efficacious”.

Consider `CCOc1ccc2cc(-c3nn(CC4CCN(C)CC4)c4ncnc(N)c34)ccc2n1` [BKI-1369], for which the “anticryptosporidial efficacy in gnotobiotic piglet model” value in the test on Cryptosporidium [3] is “previously demonstrated anticryptosporidial efficacy”.

Regarding `CCOc1ccc2cc(-c3nn(CC4CCN(C)CC4)c4ncnc(N)c34)ccc2c1` [BKI-1294], the “anticryptosporidial activity in SCID beige mice” value in the test on Cryptosporidium [4] is recorded as “previously demonstrated anticryptosporidial activity”.

As for `CN(C)C[C@H](O)Cn1c2ccc(Br)cc2c2cc(Br)ccc21` (racemic) [Wiskostatin], in the test on purified N-WASp, the “inhibition of purified N-WASp” value is reported as “inhibit purified N-WASp”.

Turning to `CC(=O)Oc1ccccc1C(=O)Nc1ncc([N+](=O)[O-])s1` [Nitazoxanide], the “efficacy in the NSG mouse model (reduction in fecal oocyst shedding)” value with C. parvum is “no effect”. Besides, the “improvement after 1 week of treatment in young children” value in the test with cryptosporidiosis is given as “just over half of children studied”.
